The values below come from patent publication US20240335456A1, “CO-CRYSTAL COMPOSITION AND ITS PHARMACEUTICAL USE” (SYN-NAT PRODUCTS ENTERPRISE LLC, priority 2015, published 2024).

The subject of data set [1] is rheumatoid arthritis, osteoarthritis, arthrolithiasis (gout). The data set can be described thus: Phase II and Phase III clinical trials in SCLC patients also suffering from rheumatoid arthritis, osteoarthritis, gout and other diseases. The note with it: DCP 1 to about 10 mg/kg body weight. Format: in vivo, human. As to the method:
DCP alleviated symptoms for clinical trial patients suffering from multiple diseases. In China, DCP (1 to about 10 mg/kg body weight) in combination with cisplatin and Paclitaxel were used in Phase II and Phase III clinical trials for treatment of patients having small cell lung cancer (SCLC). The cancer patients were simultaneously suffering from a number of proliferative diseases, degenerative diseases, immunological diseases, and other diseases as indicated above. For example, some of the patients were suffering from rheumatoid arthritis, osteoarthritis, arthrolithiasis (gout) and/or other diseases. […] Such diseases include at least rheumatoid arthritis, osteoarthritis, and arthrolithiasis (gout). […] When DCP was administered with an additional therapeutic agent or adjuvant therapy agent such as folic acid, coenzyme Q10, curcumin, glutathione (GSH), aloe vera, oryzanol, 5-fluorouracil, bortezomib, the effects to reduce disease symptoms were further enhanced.

For another data set, the system named is nonbacterial prostatitis. The data set can be described thus: Mouse model for prostatitis, prostate tissue pathology. Format: in vivo. The source says: Mouse model for prostatitis was utilized to study the effects of DCP.
The conditions of data set [2]: Phase I dose-escalation, Chinese cancer patients; cited from earlier work.
The subject of data set [3] is benign prostatic hyperplasia (BPH). The data set is described as follows: Mouse model of BPH (white cell number, lecithin density, prostate tissue). The format is in vivo. An excerpt: In the BPH model group (FIG. 7), glands proliferation and a small amount of lymphocytes and plasma cells were shown.
Data set [4] concerns Human fibroblast-like synoviocytes rheumatoid arthritis (HFLS-RA) cells. The data set can be described thus: HFLS-RA cell proliferation (cell numbers 48 hours after treatment). The format is cell-based. As to the method: Human fibroblast-like synoviocytes rheumatoid arthritis (HFLS-RA) cells were cultured in vitro and proliferation of the cells was measured by quantifying cells numbers 48 hours after treatment. The cells were treated with DCP at concentrations of 1.563 μg/ml; 3.125 μg/ml; 6.25 μg/ml; 12.5 μg/ml; 25 μg/ml; 50 μg/ml; or 100 μg/ml.

For data set [5], the system named is benign prostatic hyperplasia (BPH). The data set is described as follows: Study of DCP in male cancer patients also suffering from BPH. Format: in vivo, human.
Data set [6] relates to Human MH7A synovial cells. The data set can be described thus: MH7A synovial cell proliferation (cell numbers 48 hours after treatment). The format is cell-based. As for the experimental part:
Human MH7A synovial cells were cultured in vitro and proliferation of the cells was measured by quantifying cells numbers 48 hours after treatment. The cells were treated with DCP at concentrations of 1.563 μg/ml; 3.125 μg/ml; 6.25 μg/ml; 12.5 μg/ml; 25 μg/ml; 50 μg/ml; or 100 μg/ml.

Where [7] appears, read: 48 hours after treatment, 1.563-100 μg/ml.
Setting [8] is: majority of BPH patients, after two weeks of use.

Several values for one entry are separate records, joined by “and”; a condition that tells them apart may be missing. Equal entries are not always repeated.

Turning to Dicycloplatin [DCP], in data set [1], the Side effects entry is “less patients receiving DCP alone were suffering from side effects and the side effects were of less severity”; the “Symptoms of proliferative, degenerative, immunological and other diseases” value was “significantly alleviated the symptoms”. Moreover, in the data set with nonbacterial prostatitis (extrapolated from mouse prostatitis model), the “Effective amount for human, based on the effective amount in mice” value is 1 to 10 mg/Kg body weight. The “Outcome of mice with nonbacterial prostatitis” value in the data set with nonbacterial prostatitis (treatment for 1-2 weeks) is recorded as “returned to normal”. Moreover, in the data set with nonbacterial prostatitis (treatment for one week, FIG. 5), the “Granulomatous lesions in prostate tissue” value is listed as “significantly reduced in some tissues or eliminated in others” and the “Inflammatory cells in interstitial infiltration” value was “significantly reduced”. Further, the Tolerated doses in data set [2] was 100 to 550 mg/m^2. In data set [3] (DCP injection), the “Lecithin corpuscle (density)” value is 30 ± 0.53 and the “White cell (number/μL)” value is 3250 ± 65 number/μL. Moreover, in data set [3] (DCP oral), the “Lecithin corpuscle (density)” value came to 27 ± 0.50 and the “White cell (number/μL)” value was determined as 3500 ± 71 number/μL. Further, the Enlargement of prostate entry in data set [3] (after treatment for a therapeutic period) was “significant inhibited”. Moreover, in data set [3] (intravenous administration, FIG. 9), the “Prostate tissue findings (inflammatory cells, glandular proliferation)” value is “inflammatory cells were significantly reduced, and glandular proliferation was inhibited”. For the same molecule, in data set [3] (oral administration, FIG. 10), the “Prostate tissue findings (inflammatory cells, glandular proliferation)” value is “inflammatory cells were significantly reduced and glandular proliferation was inhibited”. Further, in data set [4] (setting [7]), the “IC50, inhibition of HFLS-RA cell proliferation” value was 3.914 µg/mL and 3.125 µg/mL. Besides, in data set [4] (FIG. 1), the “HFLS-RA cell proliferation inhibited” value is on record as 99%. In data set [5] (setting [8]), the Enlargement of prostate entry is given as “obviously inhibited”, the “Maximum of urinary volume” value is “more than 12 mL/s” and the PSA entry is on record as “decreased”. Also, the “Symptoms of BPH” value in data set [5] (male patients with cancers and BPH) is listed as “significantly alleviated”. Further, in data set [6] (setting [7]), the “IC50, inhibition of MH7A cell proliferation” value is 8.926 µg/mL and 8.92 µg/mL. In addition, the “MH7A cell proliferation inhibited” value in data set [6] (FIG. 2) is given as 99%.

Regarding `CC(C)(C)NC(=O)[C@H]1CC[C@H]2[C@@H]3CC[C@H]4NC(=O)C=C[C@]4(C)[C@H]3CC[C@]12C` [PROSCAR, Finasteride, reference compound], in data set [3] (PROSCAR drug group, FIG. 8), the “Prostate tissue findings (inflammation cells, glandular proliferation)” value was “glandular proliferation was not clear, but inflammation cells were reduced”.
